Experimental data: patent US10844077B2, “Thiazolyl-containing compounds for treating proliferative diseases” (Dana-Farber Cancer Institute, Inc., priority 2014, dated 2020)
Where “and” joins values, the source holds several entries; their conditions need not be identical. Identical values can stand only once. Like-named read-outs stand apart in the source and are kept apart here.

Columns and labels:
Assay in all cases: KINATIV assay
Type in all cases: cell-based
[1] = system: MST4, YSK1; details: 1 μM, 90 minutes, BCWM.1 cells
In short: (§1)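 Readout is ACTIVX identification and quantitation of kinases captured by an ATP-biotin probe. Lysates from harvested cells were labeled directly with the probe, and each compound was tested in duplicate alongside duplicate or quadruplicate control samples.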

[2] = molecular target: SRC (Homo sapiens (Human), UniProt P12931); details: 1 μM, 90 minutes, BCWM.1 cells
In short: as §1

[3] = system: PI4KA, PI4KAP2; details: 1 μM, 90 minutes, BCWM.1 cells
In short: as §1

[4] = molecular target: YSK1 (Homo sapiens (Human), UniProt O00506); details: 1 μM, 90 minutes, BCWM.1 cells
In short: as §1

[5] = molecular target: BARK1 (Homo sapiens (Human), UniProt P25098); details: 1 μM, 90 minutes, BCWM.1 cells
Sequence of BARK1 (P25098 whole entry): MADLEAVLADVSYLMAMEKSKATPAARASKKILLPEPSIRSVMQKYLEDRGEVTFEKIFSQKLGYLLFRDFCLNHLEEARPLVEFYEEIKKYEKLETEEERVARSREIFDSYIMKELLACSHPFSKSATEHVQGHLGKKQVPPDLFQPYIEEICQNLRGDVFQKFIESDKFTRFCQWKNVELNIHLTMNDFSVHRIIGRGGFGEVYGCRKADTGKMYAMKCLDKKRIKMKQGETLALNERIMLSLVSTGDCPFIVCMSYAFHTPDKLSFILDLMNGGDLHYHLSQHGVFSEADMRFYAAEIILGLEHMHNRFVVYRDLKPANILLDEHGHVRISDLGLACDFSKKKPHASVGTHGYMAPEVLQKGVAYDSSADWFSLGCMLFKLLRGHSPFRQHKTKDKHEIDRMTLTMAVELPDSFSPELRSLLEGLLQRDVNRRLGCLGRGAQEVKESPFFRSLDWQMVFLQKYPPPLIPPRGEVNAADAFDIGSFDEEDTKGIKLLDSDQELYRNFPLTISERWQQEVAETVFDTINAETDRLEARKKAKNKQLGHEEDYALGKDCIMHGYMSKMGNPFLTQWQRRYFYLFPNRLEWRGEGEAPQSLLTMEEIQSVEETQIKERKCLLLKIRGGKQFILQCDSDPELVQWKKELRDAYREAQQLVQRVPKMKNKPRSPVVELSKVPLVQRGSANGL
In short: as §1

[6] = molecular target: CDK9 (Homo sapiens (Human), UniProt P50750); details: 1 μM, 90 minutes, BCWM.1 cells
In short: as §1

[7] = molecular target: MST4 (Homo sapiens (Human), UniProt Q9P289); details: 1 μM, 90 minutes, BCWM.1 cells
In short: as §1

[8] = molecular target: GSK3B (Homo sapiens (Human), UniProt P49841)
In short: as §1

[9] = system: SRPK1, SRPK2; details: 1 μM, 90 minutes, BCWM.1 cells
In short: as §1

[10] = molecular target: MLK3 (Homo sapiens (Human), UniProt Q16584); details: 1 μM, 90 minutes, BCWM.1 cells
In short: as §1

[11] = molecular target: LYN (Homo sapiens (Human), UniProt P07948); details: 1 μM, 90 minutes, BCWM.1 cells
Sequence of LYN (P07948 whole entry): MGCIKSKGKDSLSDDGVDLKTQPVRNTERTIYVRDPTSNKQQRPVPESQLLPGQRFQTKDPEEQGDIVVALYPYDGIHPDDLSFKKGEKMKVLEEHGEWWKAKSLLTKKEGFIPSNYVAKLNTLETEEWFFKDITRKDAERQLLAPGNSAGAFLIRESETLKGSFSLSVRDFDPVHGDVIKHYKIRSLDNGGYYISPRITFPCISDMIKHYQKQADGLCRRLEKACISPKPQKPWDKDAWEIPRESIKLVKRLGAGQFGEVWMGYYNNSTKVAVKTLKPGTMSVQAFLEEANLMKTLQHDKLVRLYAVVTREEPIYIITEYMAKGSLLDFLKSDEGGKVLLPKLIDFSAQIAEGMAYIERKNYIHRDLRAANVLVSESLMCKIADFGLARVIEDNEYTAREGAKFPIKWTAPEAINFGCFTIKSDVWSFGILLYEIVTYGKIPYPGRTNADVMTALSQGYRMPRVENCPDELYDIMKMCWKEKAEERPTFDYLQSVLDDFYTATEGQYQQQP
In short: as §1

[12] = molecular target: MST1 (Homo sapiens (Human), UniProt Q13043); details: 1 μM, 90 minutes, BCWM.1 cells
In short: as §1

[13] = system: MAST1, MAST2; details: 1 μM, 90 minutes, BCWM.1 cells
In short: as §1

[14] = molecular target: PI4KB (Homo sapiens (Human), UniProt Q9UBF8); details: 1 μM, 90 minutes, BCWM.1 cells
Sequence of PI4KB (Q9UBF8 whole entry): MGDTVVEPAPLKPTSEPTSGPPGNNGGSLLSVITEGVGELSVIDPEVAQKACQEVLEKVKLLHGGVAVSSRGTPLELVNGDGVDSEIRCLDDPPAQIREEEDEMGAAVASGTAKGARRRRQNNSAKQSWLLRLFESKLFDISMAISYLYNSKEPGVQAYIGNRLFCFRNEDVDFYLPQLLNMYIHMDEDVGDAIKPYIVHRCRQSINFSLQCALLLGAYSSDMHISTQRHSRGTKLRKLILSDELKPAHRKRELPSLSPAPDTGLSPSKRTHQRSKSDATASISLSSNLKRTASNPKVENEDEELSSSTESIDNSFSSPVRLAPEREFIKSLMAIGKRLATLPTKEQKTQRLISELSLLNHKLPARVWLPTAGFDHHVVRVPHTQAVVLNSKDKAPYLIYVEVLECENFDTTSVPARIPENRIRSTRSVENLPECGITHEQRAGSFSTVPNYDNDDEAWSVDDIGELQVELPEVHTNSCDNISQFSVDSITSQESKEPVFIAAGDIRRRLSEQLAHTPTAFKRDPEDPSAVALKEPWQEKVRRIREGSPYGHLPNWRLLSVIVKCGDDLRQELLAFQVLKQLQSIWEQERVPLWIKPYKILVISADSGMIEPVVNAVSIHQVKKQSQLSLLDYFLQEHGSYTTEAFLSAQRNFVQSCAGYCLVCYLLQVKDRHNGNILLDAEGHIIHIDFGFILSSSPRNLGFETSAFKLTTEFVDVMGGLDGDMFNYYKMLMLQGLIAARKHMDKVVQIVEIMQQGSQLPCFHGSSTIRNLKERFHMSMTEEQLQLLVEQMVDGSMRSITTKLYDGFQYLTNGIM
In short: as §1

[15] = system: CDK11, CDK8; details: 1 μM, 90 minutes, BCWM.1 cells
In short: as §1

[16] = system: MAP3K2, MAP3K3; details: 1 μM, 90 minutes, BCWM.1 cells
In short: as §1

[17] = molecular target: PIK3CD (Homo sapiens (Human), UniProt O00329); details: 1 μM, 90 minutes, BCWM.1 cells
Sequence of PIK3CD (O00329 whole entry): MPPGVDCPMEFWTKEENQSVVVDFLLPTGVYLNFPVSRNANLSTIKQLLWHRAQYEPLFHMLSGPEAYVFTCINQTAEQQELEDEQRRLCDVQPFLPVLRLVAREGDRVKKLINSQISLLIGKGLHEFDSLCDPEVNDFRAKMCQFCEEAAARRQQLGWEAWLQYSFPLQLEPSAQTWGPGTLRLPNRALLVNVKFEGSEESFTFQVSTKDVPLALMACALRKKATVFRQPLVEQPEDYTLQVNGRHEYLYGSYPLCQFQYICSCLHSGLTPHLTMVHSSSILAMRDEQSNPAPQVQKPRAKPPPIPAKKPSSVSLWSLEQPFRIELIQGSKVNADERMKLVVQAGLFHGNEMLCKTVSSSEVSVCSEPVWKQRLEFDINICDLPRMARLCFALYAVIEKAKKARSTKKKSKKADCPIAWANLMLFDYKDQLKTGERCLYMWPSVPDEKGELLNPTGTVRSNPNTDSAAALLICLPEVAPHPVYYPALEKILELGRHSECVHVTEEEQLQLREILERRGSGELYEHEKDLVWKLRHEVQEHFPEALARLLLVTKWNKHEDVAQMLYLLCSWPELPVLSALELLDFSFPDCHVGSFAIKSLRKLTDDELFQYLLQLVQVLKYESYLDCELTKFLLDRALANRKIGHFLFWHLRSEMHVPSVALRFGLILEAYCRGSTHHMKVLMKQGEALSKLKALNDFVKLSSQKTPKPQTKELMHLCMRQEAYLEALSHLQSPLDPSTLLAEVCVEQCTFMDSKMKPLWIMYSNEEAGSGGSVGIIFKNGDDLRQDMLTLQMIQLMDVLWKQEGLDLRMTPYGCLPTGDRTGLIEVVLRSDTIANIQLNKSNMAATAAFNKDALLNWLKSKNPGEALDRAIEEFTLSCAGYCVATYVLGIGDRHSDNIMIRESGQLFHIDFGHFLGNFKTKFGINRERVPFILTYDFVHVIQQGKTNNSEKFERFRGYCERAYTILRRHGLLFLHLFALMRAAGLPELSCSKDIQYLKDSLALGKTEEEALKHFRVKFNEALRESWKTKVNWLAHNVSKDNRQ
Sequence of PIK3CD (P27986 whole entry partner): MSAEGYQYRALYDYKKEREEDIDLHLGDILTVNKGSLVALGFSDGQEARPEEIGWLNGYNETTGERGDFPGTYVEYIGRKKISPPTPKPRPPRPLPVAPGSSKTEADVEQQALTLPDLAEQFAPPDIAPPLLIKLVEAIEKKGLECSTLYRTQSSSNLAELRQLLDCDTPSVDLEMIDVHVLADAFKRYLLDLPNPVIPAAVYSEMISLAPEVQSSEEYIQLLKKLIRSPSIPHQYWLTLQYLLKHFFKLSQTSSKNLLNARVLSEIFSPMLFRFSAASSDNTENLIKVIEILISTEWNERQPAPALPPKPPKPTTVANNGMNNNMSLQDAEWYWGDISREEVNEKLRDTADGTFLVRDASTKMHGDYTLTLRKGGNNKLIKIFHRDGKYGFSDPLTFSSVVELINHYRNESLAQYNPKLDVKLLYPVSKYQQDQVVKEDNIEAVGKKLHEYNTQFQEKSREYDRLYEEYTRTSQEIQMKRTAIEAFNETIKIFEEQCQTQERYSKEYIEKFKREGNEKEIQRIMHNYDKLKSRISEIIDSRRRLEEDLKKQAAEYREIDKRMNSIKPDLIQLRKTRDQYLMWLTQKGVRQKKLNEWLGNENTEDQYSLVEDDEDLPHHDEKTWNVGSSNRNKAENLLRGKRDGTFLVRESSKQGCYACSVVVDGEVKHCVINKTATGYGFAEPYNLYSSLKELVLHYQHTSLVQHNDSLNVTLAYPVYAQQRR
In short: as §1

[18] = system: ABL, ARG; details: 1 μM, 90 minutes, BCWM.1 cells
In short: as §1

[19] = molecular target: MAP3K1 (Homo sapiens (Human), UniProt Q13233); details: 1 μM, 90 minutes, BCWM.1 cells
In short: as §1

[20] = molecular target: ZC2/TNIK (Homo sapiens (Human), UniProt Q9UKE5); details: 1 μM, 90 minutes, BCWM.1 cells
In short: as §1

[21] = molecular target: RSK2 domain2 (Homo sapiens (Human), UniProt P51812); details: 1 μM, 90 minutes, BCWM.1 cells
In short: as §1

[22] = molecular target: CDK4 (Homo sapiens (Human), UniProt P11802); details: 1 μM, 90 minutes, BCWM.1 cells
Sequence of CDK4 (P11802 2-303): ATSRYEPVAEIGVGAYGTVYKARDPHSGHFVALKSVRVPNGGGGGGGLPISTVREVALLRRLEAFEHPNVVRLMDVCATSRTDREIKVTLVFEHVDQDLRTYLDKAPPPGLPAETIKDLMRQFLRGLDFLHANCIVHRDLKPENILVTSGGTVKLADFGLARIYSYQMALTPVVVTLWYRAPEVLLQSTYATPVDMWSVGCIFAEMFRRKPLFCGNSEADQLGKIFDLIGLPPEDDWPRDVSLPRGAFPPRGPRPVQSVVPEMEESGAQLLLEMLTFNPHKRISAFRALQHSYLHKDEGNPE
In short: as §1

[23] = molecular target: MAP3K2 (Homo sapiens (Human), UniProt Q9Y2U5); details: 1 μM, 90 minutes, BCWM.1 cells
Sequence of MAP3K2 (Q9Y2U5 whole entry): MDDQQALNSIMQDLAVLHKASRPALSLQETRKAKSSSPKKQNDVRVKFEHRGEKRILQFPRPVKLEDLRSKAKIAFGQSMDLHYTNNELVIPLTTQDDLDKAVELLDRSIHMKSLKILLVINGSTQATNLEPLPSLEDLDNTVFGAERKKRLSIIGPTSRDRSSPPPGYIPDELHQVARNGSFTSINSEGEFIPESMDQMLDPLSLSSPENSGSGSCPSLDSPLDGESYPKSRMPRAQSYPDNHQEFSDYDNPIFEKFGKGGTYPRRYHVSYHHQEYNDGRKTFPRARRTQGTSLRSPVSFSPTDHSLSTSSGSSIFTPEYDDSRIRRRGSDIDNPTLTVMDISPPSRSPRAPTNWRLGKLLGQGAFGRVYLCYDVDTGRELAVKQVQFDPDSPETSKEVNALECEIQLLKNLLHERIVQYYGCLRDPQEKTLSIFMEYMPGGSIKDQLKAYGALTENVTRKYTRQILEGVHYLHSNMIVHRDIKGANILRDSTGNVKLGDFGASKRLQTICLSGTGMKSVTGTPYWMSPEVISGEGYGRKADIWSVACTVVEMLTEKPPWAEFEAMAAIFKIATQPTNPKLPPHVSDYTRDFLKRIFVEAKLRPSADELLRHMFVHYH
In short: as §1

[24] = system: PKD1, PKD2; details: 1 μM, 90 minutes, BCWM.1 cells
In short: as §1

[25] = molecular target: p70S6Kb (Homo sapiens (Human), UniProt Q9UBS0); details: 1 μM, 90 minutes, BCWM.1 cells
In short: as §1

[26] = molecular target: JAK1 (Homo sapiens (Human), UniProt P23458); details: 1 μM, 90 minutes, BCWM.1 cells
In short: as §1

[27] = system: FYN, SRC, YES; details: 1 μM, 90 minutes, BCWM.1 cells
In short: as §1

[28] = molecular target: NEK7 (Homo sapiens (Human), UniProt Q8TDX7); details: 1 μM, 90 minutes, BCWM.1 cells
Sequence of NEK7 (Q8TDX7 whole entry): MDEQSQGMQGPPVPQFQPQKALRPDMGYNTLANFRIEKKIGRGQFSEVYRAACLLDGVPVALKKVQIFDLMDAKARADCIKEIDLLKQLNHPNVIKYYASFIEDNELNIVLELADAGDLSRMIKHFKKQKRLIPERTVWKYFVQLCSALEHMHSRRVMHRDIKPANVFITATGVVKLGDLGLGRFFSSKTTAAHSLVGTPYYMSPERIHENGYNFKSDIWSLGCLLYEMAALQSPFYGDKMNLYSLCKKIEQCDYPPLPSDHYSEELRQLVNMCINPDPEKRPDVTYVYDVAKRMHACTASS
In short: as §1

[29] = molecular target: PKN1 (Homo sapiens (Human), UniProt Q16512); details: 1 μM, 90 minutes, BCWM.1 cells
In short: as §1

[30] = molecular target: RSK1 domain2 (Homo sapiens (Human), UniProt Q15418); details: 1 μM, 90 minutes, BCWM.1 cells
In short: as §1

[31] = molecular target: NEK2 (Homo sapiens (Human), UniProt P51955); details: 1 μM, 90 minutes, BCWM.1 cells
In short: as §1

[32] = molecular target: HPK1 (Homo sapiens (Human), UniProt Q92918); details: 1 μM, 90 minutes, BCWM.1 cells
In short: as §1

[33] = molecular target: PEK (Homo sapiens (Human), UniProt Q9NZJ5); details: 1 μM, 90 minutes, BCWM.1 cells
In short: as §1

[34] = molecular target: AMPKa1 (Homo sapiens (Human), UniProt Q13131); details: 1 μM, 90 minutes, BCWM.1 cells
In short: as §1

[35] = molecular target: FGR (Homo sapiens (Human), UniProt P09769); details: 1 μM, 90 minutes, BCWM.1 cells
In short: as §1

[36] = molecular target: CASK (Homo sapiens (Human), UniProt O14936); details: 1 μM, 90 minutes, BCWM.1 cells
In short: as §1

[37] = molecular target: RSK3 domain1 (Homo sapiens (Human), UniProt Q15349); details: 1 μM, 90 minutes, BCWM.1 cells
In short: as §1

[38] = molecular target: SNRK (Homo sapiens (Human), UniProt Q9NRH2); details: 1 μM, 90 minutes, BCWM.1 cells
In short: as §1

[39] = GSK3B, 1 μM, 90 minutes, BCWM.1 cells

Structure (SMILES)	% change of MS signal compared to control sample [1] [%]	% change of MS signal compared to control sample [2] [%]	% change of MS signal compared to control sample [3] [%]	% change of MS signal compared to control sample [4] [%]	% change of MS signal compared to control sample [5] [%]	% change of MS signal compared to control sample [6] [%]	% change of MS signal compared to control sample [7] [%]	% change of MS signal compared to control sample [9] [%]	% change of MS signal compared to control sample [10] [%]	% change of MS signal compared to control sample [11]	% change of MS signal compared to control sample [12] [%]	% change of MS signal compared to control sample [13] [%]	% change of MS signal compared to control sample [14]	% change of MS signal compared to control sample [15] [%]	% change of MS signal compared to control sample [16] [%]	% change of MS signal compared to control sample [17] [%]	% change of MS signal compared to control sample [18]	% change of MS signal compared to control sample [19] [%]	% change of MS signal compared to control sample [20] [%]	% change of MS signal compared to control sample [21] [%]	other results
C=CC(=O)N1CCC(Cn2ccc(Nc3ncc(C(=O)Nc4c(C)cccc4Cl)s3)n2)C1 (stereo not drawn) [II-1]	9.2	>90	−45.7	−27.4	−23.3	−57.0	21.1	0.0	−18.0	88.1% and >90%	13.2	−81.3	7.2% and 13.7%	−9.2	17.1	−9.5	76.1% and 39.5%	−1.2	−10.0	9.7	% change of MS signal compared to control sample [8, 39]: −5.1%; % change of MS signal compared to control sample [22]: 2.2%; % change of MS signal compared to control sample [23]: 21.3%; % change of MS signal compared to control sample [24]: −19.8%; % change of MS signal compared to control sample [25]: −57.1%; % change of MS signal compared to control sample [26]: 5.4%; % change of MS signal compared to control sample [27]: 88.1%; % change of MS signal compared to control sample [28]: −8.5%; % change of MS signal compared to control sample [29]: 20.9%; % change of MS signal compared to control sample [30]: 14.0%; % change of MS signal compared to control sample [31]: −6.0%; % change of MS signal compared to control sample [32]: 23.0% and 12.1%; % change of MS signal compared to control sample [33]: −31.0%; % change of MS signal compared to control sample [34]: 5.1%; % change of MS signal compared to control sample [35]: 87.8%; % change of MS signal compared to control sample [36]: 29.4%; % change of MS signal compared to control sample [37]: −58.4%; % change of MS signal compared to control sample [38]: 47.8% and 59.8%
C=CC(=O)N1CCC(CNc2nccc(Nc3ncc(C(=O)Nc4c(C)cccc4C)s3)n2)C1 (racemic) [Example I-8]	19.3	>90	−9.9	−29.2	−19.6	−5.2	−0.8	33.2	11.7	>97% and >90%	2.4	−32.5	44.2% and 41.9%	19.6	19.4	−16.2	>90% and >97%	15.5	19.0	−6.8	% change of MS signal compared to control sample [8]: −10.7%; % change of MS signal compared to control sample [22]: 6.1%; % change of MS signal compared to control sample [23]: 3.5%; % change of MS signal compared to control sample [24]: −15.3%; % change of MS signal compared to control sample [25]: −22.7%; % change of MS signal compared to control sample [26]: −1.9%; % change of MS signal compared to control sample [27]: 97.9%; % change of MS signal compared to control sample [28]: −1.0%; % change of MS signal compared to control sample [29]: 13.7%; % change of MS signal compared to control sample [30]: 0.5%; % change of MS signal compared to control sample [31]: −3.0%; % change of MS signal compared to control sample [32]: 32.8% and 24.6%; % change of MS signal compared to control sample [33]: 3.3%; % change of MS signal compared to control sample [34]: −0.6%; % change of MS signal compared to control sample [35]: 86.0%; % change of MS signal compared to control sample [36]: 43.0%; % change of MS signal compared to control sample [37]: −62.5%; % change of MS signal compared to control sample [38]: 45.1% and 59.1%
C=CC(=O)N1CC[C@@H](Nc2nccc(Nc3ncc(C(=O)Nc4c(C)cccc4C)s3)n2)C1 [Example I-4]	20.5	>90	−37.7	−58.5	−8.1	−41.9	−13.2	−14.7	−27.2	>97% and >90%	7.0	−62.1	20.0% and 16.7%	−36.1	24.8	−14.5	>90% and 91.7%	18.4	48.8	13.8	% change of MS signal compared to control sample [8, 39]: 0.7%; % change of MS signal compared to control sample [22]: 6.8%; % change of MS signal compared to control sample [23]: 12.1%; % change of MS signal compared to control sample [24]: −4.7%; % change of MS signal compared to control sample [25]: −72.4%; % change of MS signal compared to control sample [26]: −5.7%; % change of MS signal compared to control sample [27]: 97.4%; % change of MS signal compared to control sample [28]: −7.7%; % change of MS signal compared to control sample [29]: 17.4%; % change of MS signal compared to control sample [30]: 12.5%; % change of MS signal compared to control sample [31]: 22.3%; % change of MS signal compared to control sample [32]: 26.6%; % change of MS signal compared to control sample [33]: −44.9%; % change of MS signal compared to control sample [34]: 10.1%; % change of MS signal compared to control sample [35]: 87.0%; % change of MS signal compared to control sample [36]: 23.2%; % change of MS signal compared to control sample [37]: −26.9%; % change of MS signal compared to control sample [38]: 35.3% and 61.9%
